Measurements published in US20240246977A1, “DEGRADATION OF BRUTON'S TYROSINE KINASE (BTK) BY CONJUGATION OF BTK INHIBITORS WITH E3 LIGASE LIGAND AND METHOD OF USE” (BeiGene Switzerland GmbH, priority 2021, published 2024).

Legend:
HEK-293 cells = assay: HEK-293 cytotoxicity detection (CellTiter-Glo); format: cell-based; details: Homo sapiens, 72 h, 72 h incubation, CellTiter-Glo luminescence, read-out: HEK293
Experimental: HEK-293 cells were treated with compounds diluted in 0.2% DMSO, dilution was done according to the following protocol: (1) making 500× stock solution in DMSO from 5 mM by 4-fold dilution, total 8 doses were included; (2) making 2× solution in cell culture medium by transferring 0.5 ul 500× stock solution into 125 ul medium; (3) adding 50 ul of 2× solution to cells for incubation of 72 h.
25 μl of the CellTiter-Glo®Reagent [(Promega)—Cat No. G7572] was added to each well in the 96-well plate. The contents were mixed for 2 minutes on an orbital shaker to induce cell lysis. The plate was then allowed to incubate at room temperature for 10 minutes to stabilize luminescent signal. Luminescence was recorded on BMG PheraStar with luminescence protocol.
The inhibition percentage of the compound was calculated by the following equation: Inhibition percentage of Compound=100−100×(Signal-low control)/(High control-low control), wherein signal=each test compound group
High control=Cell group with added DMSO and without compound, indicating cells proliferation with no inhibition;
Imax is the maximum percentage of inhibition.
The IC50 value of a compound can be obtained by fitting the following equation
(§1) Wherein, X and Y are known values, and IC50, Hillslope, Top and Bottom are the parameters obtained by fitting with software. Y is the inhibition percentage (calculated from the equation), X is the concentration of the compound; IC50 is the concentration of the compound when the 50% inhibition is reached. The smaller the IC50 value is, the stronger the inhibitory ability of the compound is. Vice versa, the higher the IC50 value is, the weaker the ability the inhibitory ability of the compound is; Hillslope represents the slope of the fitted curve, generally around 1*; Bottom represents the minimum value of the curve obtained by data fitting, which is generally 0%±20%; Top represents the maximum value of the curve obtained by data fitting, which is generally 100%±20%. The experimental data were fitted by calculating and analyzing with Dotmatics data analysis software.

BTK = BTK (Homo sapiens, UniProt Q06187); assay: BTK cell degradation in TMD-8 cells, HTRF assay; format: cell-based; set-up: endogenous in cells; host or cells: TMD-8 cells; details: 6 h treatment, IC50 (DC50) of BTK degradation
Chain of BTK (Q06187 whole entry): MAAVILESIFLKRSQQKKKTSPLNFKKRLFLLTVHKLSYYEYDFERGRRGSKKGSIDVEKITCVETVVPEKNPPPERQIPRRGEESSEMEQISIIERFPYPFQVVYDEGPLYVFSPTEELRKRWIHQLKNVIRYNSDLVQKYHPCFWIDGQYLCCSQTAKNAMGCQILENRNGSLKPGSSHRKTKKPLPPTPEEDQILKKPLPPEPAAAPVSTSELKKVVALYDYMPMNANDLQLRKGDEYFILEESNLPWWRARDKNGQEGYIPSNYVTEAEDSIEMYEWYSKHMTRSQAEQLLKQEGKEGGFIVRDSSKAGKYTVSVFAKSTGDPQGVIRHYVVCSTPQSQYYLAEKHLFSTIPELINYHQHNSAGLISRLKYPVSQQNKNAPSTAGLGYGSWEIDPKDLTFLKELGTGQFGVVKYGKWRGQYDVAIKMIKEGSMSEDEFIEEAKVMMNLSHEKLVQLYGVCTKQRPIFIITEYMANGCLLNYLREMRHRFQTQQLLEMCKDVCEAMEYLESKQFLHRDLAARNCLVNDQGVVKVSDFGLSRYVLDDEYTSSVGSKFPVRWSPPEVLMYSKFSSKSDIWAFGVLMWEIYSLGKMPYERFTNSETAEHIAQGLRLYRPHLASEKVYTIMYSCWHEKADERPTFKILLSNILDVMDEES
Experimental: TMD-8 cells were treated with compounds diluted in 0.2% DMSO, dilution was done according to the following protocol: (1) making 500× stock solution in DMSO from 1 mM by 6-fold dilution, total 8 doses were included; (2) making 2× solution in cell culture medium by transferring 0.5 μl 500× stock solution into 125 μl medium; (3) adding 15 μl of 2× solution to cells for incubation of 6 h.
After 6 h treatment, 10 μl 14×lysis buffer was added to each well; the plate was sealed and incubated for 30 min at room temperature on a plate shaker; Once the cells was lysed, 16 μL of cell lysate were transferred to a PE 384-well HTRF detection plate; 4 μL of pre-mixed HTRF antibodies were added to each well; the plate was covered with a plate sealer, and then spinned at 1000 rpm for 1 min, then incubated overnight at room temperature; the results were read on BMG PheraStar with HTRF protocol (337 nm-665 nm-620 nm).
The inhibition (degradation) percentage of the compound was calculated by the following equation: Inhibition percentage of Compound=100−100×(Signal-low control)/(High control-low control), wherein signal=each test compound group
High control=Cell group with added DMSO and without compound, indicating microplate readings without BTK degradation;
Dmax is the maximum percentage of inhibition (degradation).
The IC50 (DC50) value of a compound can be obtained by fitting the following equation
Y=Bottom+(TOP−Bottom)/(1+((IC50/X)^hillslope))
as §1, with “wherein,” for “Wherein,”

| Structure (SMILES) | IC50 (HEK-293 cells) [nM] | DC50 (BTK) [nM] |
| --- | --- | --- |
| COc1ccccc1C(=O)NCc1ccc(-c2nn3c(c2C(N)=O)Nc2ccc(N4CCN(CC5CCN(c6ccc(N7CCC(=O)NC7=O)cc6)CC5)CC4)cc2CC3)cc1 [Example C1, 7-(4-((1-(4-(2,4-dioxotetrahydropyrimidin-1(2H)-yl)phenyl)piperidin-4-yl)methyl)piperazin-1-yl)-2-(4-((2-methoxybenzamido)methyl)phenyl)-9,10-dihydro-4H-benzo[d]pyrazolo[1,5-a][1,3]diazepine-3-carboxamide] | > 10000 | 0.758 |
| Cc1cc(N2CCC(CN3CCN(c4ccc5c(c4)CCn4nc(-c6ccc(C(=O)Nc7cc(C(F)(F)F)ccn7)cc6)c(C(N)=O)c4N5)CC3)CC2)ccc1N1CCC(=O)NC1=O [Example B3, 7-(4-((1-(4-(2,4-dioxotetrahydropyrimidin-1(2H)-yl)-3-methylphenyl)piperidin-4-yl)methyl)piperazin-1-yl)-2-(4-((4-(trifluoromethyl)pyridin-2-yl)carbamoyl)phenyl)-9,10-dihydro-4H-benzo[d]pyrazolo[1,5-a][1,3]diazepine-3-carboxamide] | 88.8 | 0.534 |
| COc1c(F)c(F)c(F)c(F)c1C(=O)NCc1ccc(-c2nn3c(c2C(N)=O)Nc2ccc(N4CCN(CC5CCN(c6ccc(N7CCC(=O)NC7=O)cc6)CC5)CC4)cc2CC3)cc1C [Example C43, 7-(4-((1-(4-(2,4-dioxotetrahydropyrimidin-1(2H)-yl)phenyl)piperidin-4-yl)methyl)piperazin-1-yl)-2-(3-methyl-4-((2,3,4,5-tetrafluoro-6-methoxybenzamido)methyl)phenyl)-9,10-dihydro-4H-benzo[d]pyrazolo[1,5-a][1,3]diazepine-3-carboxamide] | 979 | 29.4 |
| NC(=O)c1c(-c2ccc(C(=O)Nc3cc(C(F)F)ccn3)cc2)nn2c1Nc1ccc(N3CCN(CC4CCN(c5ccc(N6CCC(=O)NC6=O)cc5)CC4)CC3)cc1CC2 [Example B18, 2-(4-((4-(difluoromethyl)pyridin-2-yl)carbamoyl)phenyl)-7-(4-((1-(4-(2,4-dioxotetrahydropyrimidin-1(2H)-yl)phenyl)piperidin-4-yl)methyl)piperazin-1-yl)-9,10-dihydro-4H-benzo[d]pyrazolo[1,5-a][1,3]diazepine-3-carboxamide] | > 10000 | 0.378 |
| COc1cc(F)c(F)cc1C(=O)NCc1ccc(-c2nn3c(c2C(N)=O)Nc2ccc(N4CCN(CC5CCN(c6ccc(N7CCC(=O)NC7=O)cc6)CC5)CC4)cc2CC3)cc1C [Example C33, 2-(4-((4,5-difluoro-2-methoxybenzamido)methyl)-3-methylphenyl)-7-(4-((1-(4-(2,4-dioxotetrahydropyrimidin-1(2H)-yl)phenyl)piperidin-4-yl)methyl)piperazin-1-yl)-9,10-dihydro-4H-benzo[d]pyrazolo[1,5-a][1,3]diazepine-3-carboxamide] | > 10000 | 9.19 |
| COc1ccc(C)cc1C(=O)NCc1ccc(-c2nn3c(c2C(N)=O)Nc2ccc(N4CCN(CC5CCN(c6ccc(N7CCC(=O)NC7=O)cc6)CC5)CC4)cc2CC3)cc1C [Example C39, 7-(4-((1-(4-(2,4-dioxotetrahydropyrimidin-1(2H)-yl)phenyl)piperidin-4-yl)methyl)piperazin-1-yl)-2-(4-((2-methoxy-5-methylbenzamido)methyl)-3-methylphenyl)-9,10-dihydro-4H-benzo[d]pyrazolo[1,5-a][1,3]diazepine-3-carboxamide] | > 10000 | 8.52 |
| CC(C)(C)c1noc(C(=O)NCc2ccc(-c3nn4c(c3C(N)=O)Nc3ccc(N5CCN(CC6CCN(c7ccc(N8CCC(=O)NC8=O)cc7)CC6)CC5)cc3CC4)cc2)n1 [Example C12, 3-(tert-butyl)-N-(4-(3-carbamoyl-7-(4-((1-(4-(2,4-dioxotetrahydropyrimidin-1(2H)-yl)phenyl)piperidin-4-yl)methyl)piperazin-1-yl)-9,10-dihydro-4H-benzo[d]pyrazolo[1,5-a][1,3]diazepin-2-yl)benzyl)-1,2,4-oxadiazole-5-carboxamide] | > 10000 | 1.82 |
| Cc1cccc(NC(=O)c2ccc(-c3nn4c(c3C(N)=O)Nc3ccc(N5CCN(CC6CCN(c7ccc(N8CCC(=O)NC8=O)cc7)CC6)CC5)cc3CC4)nc2C)n1 [Example B38, 7-(4-((1-(4-(2,4-dioxotetrahydropyrimidin-1(2H)-yl)phenyl)piperidin-4-yl)methyl)piperazin-1-yl)-2-(6-methyl-5-((6-methylpyridin-2-yl)carbamoyl)pyridin-2-yl)-9,10-dihydro-4H-benzo[d]pyrazolo[1,5-a][1,3]diazepine-3-carboxamide] | > 10000 | 4.89 |
| NC(=O)c1c(-c2ccc(Oc3ccccc3)cc2)nn2c1Nc1ccc(C(=O)N[C@H]3CC[C@H](CN4CCN(c5cc6c(cc5F)C(=O)N(C5CCC(=O)NC5=O)C6=O)CC4)CC3)cc1CC2 (stereo partly drawn) [Example A12, N^7-((1r,4r)-4-((4-(2-(2,6-dioxopiperidin-3-yl)-6-fluoro-1,3-dioxoisoindolin-5-yl)piperazin-1-yl)methyl)cyclohexyl)-2-(4-phenoxyphenyl)-9,10-dihydro-4H-benzo[d]pyrazolo[1,5-a][1,3]diazepine-3,7-dicarboxamide] | 396 | 4.58 |
| COc1ccnc(NC(=O)c2ccc(-c3nn4c(c3C(N)=O)Nc3ccc(N5CCN(CC6CCN(c7ccc(N8CCC(=O)NC8=O)cc7)CC6)CC5)cc3CC4)c(F)c2C)c1 [Example B50, 7-(4-((1-(4-(2,4-dioxotetrahydropyrimidin-1(2H)-yl)phenyl)piperidin-4-yl)methyl)piperazin-1-yl)-2-(2-fluoro-4-((4-methoxypyridin-2-yl)carbamoyl)-3-methylphenyl)-9,10-dihydro-4H-benzo[d]pyrazolo[1,5-a][1,3]diazepine-3-carboxamide] | > 10000 | 2.16 |
| NC(=O)c1c(-c2ccc(Oc3ccccc3)cc2)nn2c1Nc1ccc(NC(=O)C3CCN(c4ccc5c(c4)C(=O)N(C4CCC(=O)NC4=O)C5=O)CC3)cc1CC2 (stereo not drawn) [Example A1, 7-(1-(2-(2,6-dioxopiperidin-3-yl)-1,3-dioxoisoindolin-5-yl)piperidine-4-carboxamido)-2-(4-phenoxyphenyl)-9,10-dihydro-4H-benzo[d]pyrazolo[1,5-a][1,3]diazepine-3-carboxamide] | 417 | 3 |
| Cc1cccc(NC(=O)c2ccc(-c3nn4c(c3C(N)=O)Nc3ccc(N5CCN(CC6CCN(c7ccc8c(c7)CN(C7CCC(=O)NC7=O)C8=O)CC6)CC5)cc3CC4)c(F)c2C)n1 (stereo not drawn) [Example B58, 7-(4-((1-(2-(2,6-dioxopiperidin-3-yl)-1-oxoisoindolin-5-yl)piperidin-4-yl)methyl)piperazin-1-yl)-2-(2-fluoro-3-methyl-4-((6-methylpyridin-2-yl)carbamoyl)phenyl)-9,10-dihydro-4H-benzo[d]pyrazolo[1,5-a][1,3]diazepine-3-carboxamide] | > 10000 | 2.01 |
